Reference: patent publication US20180360972A1, “THERAPEUTIC COMPOUNDS” (REGENTS OF THE UNIVERSITY OF MINNESOTA, priority 2017, published 2018)
Square brackets hold non-standard residues; d marks the D form. Peptide text beside a SMILES is read from it. d2Nal = N[C@H](Cc1ccc2ccccc2c1)C(=O)O

How the values were obtained:
mMC5R = mMC5R (Mus musculus, UniProt P41149); assay: mMC5R | Agonist EC50 (nM)
Protocol: Table printed on a drawing sheet, Figure 23
The cAMP signaling potency was determined by AlphaScreen® assays. The reported errors are the standard error of the mean (SEM) determined from at least three independent experiments. Changes less than 3-fold were considered to be within the inherent experimental assay error. NS means compound was not soluble in bioassay compatible solvent.

hMC4R [1] = target: T1, hMC4R (Homo sapiens, UniProt P32245); assay: cAMP Signaling | EC50 (nM)
T1 construct: Flag; expressed in transfected cells
Protocol: Table printed on a drawing sheet, Figure 20
The cAMP signaling potency was determined by AlphaScreen™ assays. […] The reported errors are the standard error of the mean (SEM) determined from at least three independent experiments. Changes less than 3-fold were considered to be within the inherent experimental assay error.
Target sequence in this assay (P32245 whole entry, looked up): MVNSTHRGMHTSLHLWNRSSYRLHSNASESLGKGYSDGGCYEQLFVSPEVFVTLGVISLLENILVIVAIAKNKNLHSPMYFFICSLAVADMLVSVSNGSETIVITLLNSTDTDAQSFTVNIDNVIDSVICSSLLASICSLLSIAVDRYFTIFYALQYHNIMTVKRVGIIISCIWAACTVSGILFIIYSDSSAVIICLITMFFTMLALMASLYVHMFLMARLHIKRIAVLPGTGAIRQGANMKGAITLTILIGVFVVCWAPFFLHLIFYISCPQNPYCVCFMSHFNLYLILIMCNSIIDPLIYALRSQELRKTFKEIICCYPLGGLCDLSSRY

hMC4R [2] = target: T1, hMC4R; assay: PRESTO-Tango β-arrestin recruitment assay; format: cell-based; conditions: for fold increase in β-arrestin recruitment compared to CJL-1-14: vs tetrapeptide CJL-1-14
Protocol: The PRESTO-Tango technology is an open-source resource that has been utilized to identify ligands for orphan receptors based on β-arrestin recruitment.
The plasmids and assay technology was kindly provided by the Bryan Roth laboratory (University of North Carolina at Chapel Hill) and are now available through ADDGENE (Kit # 1000000068).
The first day of the assay, HTLA cells were plated at approximately 1×10^6 cells per 10 cm plate and grown to 20-40% confluency. […] The third day, cells were removed from 10 cm plates using Gibco® Versene solution and pelleted by centrifugation (Sorvall Super T21 high speed centrifuge, swinging bucket rotor) at 800 rpm for five minutes at room temperature. Cells were manually counted on a hemocytometer and resuspended in 1% dialyzed FBS and 1% penicillin/streptomycin in DMEM to a final concentration of 400,000 cells/mL. […] Stimulated cells were incubated for 18 hours in 5% CO2 at 37° C. On the fifth day, the assay buffer and cell medium was removed by aspiration. […] After incubation, luminescence was then read on an EnSpire™ Alpha plate reader using a pre-normalized assay protocol for luminescence set by the manufacturer. Dose response curves were analyzed using the PRISM program (v4.0; GraphPad Inc.).
Target sequence in this assay (P32245 whole entry): as the sequence (P32245 whole entry, looked up) above

hMC4R [3] = target: T1, hMC4R; assay: AlphaScreen cAMP functional bioassay, hMC4R; format: cell-based
Protocol: Upon agonist stimulation, melanocortin receptors are known to signal through a Gαs-protein mediated signaling pathway that results in intracellular cAMP accumulation.
Stable populations were selected for using G418 selection (0.7-1.0 mg/mL) and used in bioassays unless indicated otherwise. In vitro experimental ligands were dissolved to a 10^−2 M stock in DMSO and stored at −20° C. Subsequent dilutions were performed in each assay's specific buffer to achieve the final concentration in the well. The ligands were assayed as TFA salts.
AlphaScreen cAMP Functional Bioassay
The AlphaScreen® assay was performed as described by manufacturer.
Cells were removed from plates using Gibco® Versene solution and pelleted by centrifugation (Sorvall Super T21 high speed centrifuge, swinging bucket rotor) at 800 rpm for five minutes. […] A 10 μL aliquot of cell suspension was counted manually using a hemocytometer after addition of Trypan blue dye (BioRad). Cells were again pelleted by centrifugation, and DPBS was gently aspirated. The pelleted cells were then resuspended in a solution of freshly made stimulation buffer (Hank's Balanced Salt Solution [HBSS 10× [−] sodium bicarbonate] and [−] phenol red, Gibco®], 0.5 mM isobutylmethylxanthine [IBMX], 5 mM HEPES buffer solution [1M, Gibco®], 0.1% bovine serum albumin [BSA] in Milli-Q water, pH=7.4) and anti-cAMP acceptor beads (1.0 unit per well, AlphaScreen®). […] The cells were then stimulated with ligand diluted in stimulation buffer to achieve their final concentrations in the well ranging from 10^−13 to 10^−4 M. The stimulated plates were incubated in a dark laboratory drawer at room temperature for two hours.
Meanwhile, a biotinylated cAMP/streptavidin donor bead working solution was made by adding biotinylated cAMP (1 Unit/well, AlphaScreen®) and streptavidin donor beads (1 Unit/well, AlphaScreen®) to a lysis buffer (10% Tween-20, 5 mM HEPES buffer solution [1M, Gibco®], 0.1% bovine serum albumin [BSA] in Milli-Q water, pH=7.4). After the two hour stimulation, the biotinylated cAMP/Streptavidin donor bead working solution was added to each well under green light and mixed well by pipetting up and down. The cells were incubated for another two hours at room temperature in a dark drawer at room temperature. The plate was then read on an EnSpire™ Alpha plate reader using a pre-normalized assay protocol set by the manufacturer. Assays were performed with duplicate data points on each plate and repeated in at least three independent experiments.
Dose response curves were analyzed using the PRISM program (v4.0; GraphPad Inc.).
Target sequence in this assay (P32245 whole entry): as the sequence (P32245 whole entry, looked up) above

hMC4R [4] = target: T1, hMC4R; assay: β-Arrestin Recruitment | EC50 (nM)
Target sequence in this assay (P32245 whole entry, looked up): as above

[5] = target: mMC4R-NanoLuc and mMC4R-HaloTag homodimer (Mus musculus, UniProt P56450); assay: NanoBRET ligand-dependent modulation of BRET signal; conditions: 10^−5, 10^−7 and 10^−9 M vs assay buffer
Chain of mMC4R-NanoLuc and mMC4R-HaloTag homodimer (P56450 whole entry): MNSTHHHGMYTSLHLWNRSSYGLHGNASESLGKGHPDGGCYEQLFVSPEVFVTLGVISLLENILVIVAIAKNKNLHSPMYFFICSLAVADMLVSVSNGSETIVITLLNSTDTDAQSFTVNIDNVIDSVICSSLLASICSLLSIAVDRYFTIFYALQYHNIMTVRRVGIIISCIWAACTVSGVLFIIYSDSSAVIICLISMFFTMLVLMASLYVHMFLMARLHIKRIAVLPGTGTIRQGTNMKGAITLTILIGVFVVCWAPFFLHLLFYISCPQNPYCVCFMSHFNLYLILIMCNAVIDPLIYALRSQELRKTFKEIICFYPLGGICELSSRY
Chain of mMC4R-NanoLuc and mMC4R-HaloTag homodimer (P56450 whole entry): as above
Protocol: On the first day, cells were plated into 6 well plates in the morning. In the afternoon of the same day, cells were transiently transfected with mMC4R-NanoLuc® fusion protein and the MC4R-HaloTag® fusion protein by adding FuGene6 Transfection (8 μL/well, Promega), DNA (2 μg/well) in OptiMem medium (Invitrogen) at a total volume of 100 μL/well. […] Cells were incubated with transfection reagent overnight at 5% CO2 at 37° C.
This provides the background signal and was subtracted from the final experimental signal. Plates were then developed 48 to 60 hours after transfection. Two hours before the plates were developed, 10 μL of a 10× aliquot of the ligand diluted in assay buffer was added to each well to yield the final in well concentration (10^−5, 10^−7, or 10^−9M) of each compound. For the assay buffer control, 10 μL of assay buffer was added instead of compound. […] The standard error of the mean (SEM) was derived from at least three independent experiments.

Chain of mMC5R (P41149 whole entry, looked up): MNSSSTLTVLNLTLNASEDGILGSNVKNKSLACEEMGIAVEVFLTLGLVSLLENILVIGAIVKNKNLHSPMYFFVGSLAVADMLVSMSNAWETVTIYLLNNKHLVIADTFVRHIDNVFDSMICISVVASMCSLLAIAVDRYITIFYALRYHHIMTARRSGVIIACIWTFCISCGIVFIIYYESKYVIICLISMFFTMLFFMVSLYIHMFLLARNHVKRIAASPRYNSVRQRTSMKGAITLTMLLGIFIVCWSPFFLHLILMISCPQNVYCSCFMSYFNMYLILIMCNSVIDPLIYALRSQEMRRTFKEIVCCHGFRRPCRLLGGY

## CC(=O)N[C@@H](Cc1c[nH]cn1)C(=O)N[C@H](Cc1ccccc1)C(=O)N[C@@H](CCCNC(=N)N)C(=O)N[C@@H](Cc1c[nH]c2ccccc12)C(N)=O [CJL-1-14, Ac-His-DPhe-Arg-Trp-NH2]
mMC5R
  EC50: 9.8 ± 2.7 nM

## CC(=O)N[C@@H](Cc1c[nH]cn1)C(=O)N[C@H](Cc1ccc2ccccc2c1)C(=O)N[C@@H](CCCNC(=N)N)C(=O)N[C@@H](Cc1c[nH]c2ccccc12)C(=O)N1CCC[C@H]1C(=O)NCC(=O)N1CCC[C@H]1C(=O)NCC(=O)N1CCC[C@H]1C(=O)NCC(=O)N1CCC[C@H]1C(=O)NCC(=O)N1CCC[C@H]1C(=O)NCC(=O)N1CCC[C@H]1C(=O)NCC(=O)N[C@@H](Cc1c[nH]cn1)C(=O)N[C@H](Cc1ccccc1)C(=O)N[C@@H](CCCNC(=N)N)C(=O)N[C@@H](Cc1c[nH]c2ccccc12)C(N)=O [CJL-1-63, Ac-His-DNal(2′)-Arg-Trp-(Pro-Gly)6-His-DPhe-Arg-Trp-NH2] (Ac-H[d2Nal]RWPGPGPGPGPGPGH[dF]RW-NH2)
hMC4R [1]
  EC50: 1.9 ± 0.2 nM
hMC4R [2]; at 10 μM
  β-arrestin response compared to maximal efficacy of NDP-MSH: 55%
hMC4R [3]; HEK293 cells stably expressing hMC4R
  cAMP agonist potency (in words): single digit nanomolar agonists

## N=C(N)NCCC[C@H](NC(=O)[C@@H](Cc1ccccc1)NC(=O)[C@H](Cc1c[nH]cn1)NC(=O)COCC(=O)NCCCOCCOCCOCCCN)C(=O)N[C@@H](Cc1c[nH]c2ccccc12)C(N)=O [CJL-1-116]
hMC4R [4]
  EC50: 140 ± 70 nM
hMC4R [1]
  EC50: 2 ± 0.3 nM
hMC4R [2]
  fold increase in β-arrestin recruitment compared to CJL-1-14: < 3 fold

## CC(=O)N[C@@H](Cc1c[nH]cn1)C(=O)N[C@H](Cc1ccc2ccccc2c1)C(=O)N[C@@H](CCCNC(=N)N)C(=O)N[C@@H](Cc1c[nH]c2ccccc12)C(=O)NCCCOCCOCCOCCCNC(=O)COCC(=O)N[C@@H](Cc1c[nH]cn1)C(=O)N[C@H](Cc1ccc2ccccc2c1)C(=O)N[C@@H](CCCNC(=N)N)C(=O)N[C@@H](Cc1c[nH]c2ccccc12)C(N)=O [CJL-1-140]
[5]
  change in BRET signal (in words): no significant changes in BRET signal
hMC4R [2]; relative to NDP-MSH control, up to 10 μM
  β-arrestin recruitment efficacy (in words): equal or lower β-arrestin recruitment
hMC4R [3]; at 10 μM
  cAMP accumulation of that seen with NDP-MSH: 70%

## CC(=O)N[C@@H](Cc1c[nH]cn1)C(=O)N[C@H](Cc1ccccc1)C(=O)N[C@@H](CCCNC(=N)N)C(=O)N[C@@H](Cc1c[nH]c2ccccc12)C(=O)NCCCOCCOCCOCCCNC(=O)COCC(N)=O [CJL-5-35-4, reference compound]
hMC4R [2]
  fold increase in β-arrestin recruitment compared to CJL-1-14: 5 fold
hMC4R [3]; vs monovalent tetrapeptide CJL-1-14
  fold increase in cAMP potency compared to CJL-1-14: 3 fold
